Experimental data as given in ChEMBL document CHEMBL1201862, “PubChem BioAssay data set” (2004).
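Step 1: Grow cells in 96-well plates. Step 2: Expose to compound for 48 hours at 5 concentrations. Step 3: Interpolate endpoints linearly; if unreached, use highest concentration. GI50: concentration for 50% inhibition of growth.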 Calls of active or inactive are those of the source. Cut-off read from the data, not from the text of the source: active = GI50 up to about 1.1 µM and inactive = higher.

Assays:
Test in all cases: NCI-60 cell line screen, 48 h
HT-29 = tested on: HT-29
COLO 205 = tested on: COLO 205
OVCAR-4 = tested on: OVCAR-4
K562 = tested on: K562
HL-60 = tested on: HL-60
EKVX = tested on: EKVX
NCI/ADR-RES = tested on: NCI/ADR-RES
SF-268 = tested on: SF-268
CCRF-CEM = tested on: CCRF-CEM
SK-OV-3 = tested on: SK-OV-3
U-251 = tested on: U-251
M14 = tested on: M14
786-0 = tested on: 786-0
ACHN = tested on: ACHN
OVCAR-8 = tested on: OVCAR-8
UO-31 = tested on: UO-31
PC-3 = tested on: PC-3
SR = tested on: SR
UACC-62 = tested on: UACC-62

Measured: GI50

COC(=O)c1cc(CC2Cc3cc4c(cc3C2)CCC4)cc2c1CCC2
inactive: HT-29 49 µM | COLO 205 > 100 µM | OVCAR-4 > 100 µM | K562 > 100 µM | HL-60 56.6 µM | EKVX > 100 µM | NCI/ADR-RES > 100 µM | SF-268 > 100 µM | CCRF-CEM 52.5 µM | SK-OV-3 > 100 µM | U-251 > 100 µM | M14 > 100 µM | 786-0 > 100 µM | ACHN > 100 µM | OVCAR-8 > 100 µM | UO-31 > 100 µM | PC-3 81.8 µM | SR 29.5 µM

CC(C)(C)c1cc(C(C)(C)C)c2sc(=O)oc2c1O
inactive: HT-29 17.4 µM | COLO 205 18.8 µM | OVCAR-4 13.6 µM | K562 10.1 µM | HL-60 5.6 µM | EKVX 15 µM | NCI/ADR-RES 16.3 µM | SF-268 13.6 µM | CCRF-CEM 18.8 µM | SK-OV-3 19.5 µM | U-251 14.2 µM | M14 17.5 µM | 786-0 16.4 µM | ACHN 12.1 µM | OVCAR-8 16.3 µM | UO-31 11.6 µM | PC-3 14.7 µM | SR 4.98 µM

O=C1C=C2CCC[C@H]3OC(=O)C[C@@]23CC1
inactive: HT-29 > 100 µM | COLO 205 > 100 µM | OVCAR-4 > 100 µM | K562 > 100 µM | HL-60 > 100 µM | EKVX > 100 µM | NCI/ADR-RES > 100 µM | SF-268 > 100 µM | SK-OV-3 > 100 µM | U-251 > 100 µM | UACC-62 > 100 µM | M14 > 100 µM | 786-0 > 100 µM | ACHN > 100 µM | PC-3 > 100 µM | SR > 100 µM

CC(=N\N)/C(C)=N/N=C(C)/C(C)=N/N=C(C)/C(C)=N/N
inactive: HT-29 > 100 µM | COLO 205 > 100 µM | OVCAR-4 > 100 µM | K562 > 100 µM | HL-60 28.5 µM | EKVX > 100 µM | NCI/ADR-RES > 100 µM | SF-268 > 100 µM | CCRF-CEM > 100 µM | SK-OV-3 > 100 µM | U-251 > 100 µM | M14 > 100 µM | 786-0 > 100 µM | ACHN > 100 µM | OVCAR-8 > 100 µM | UO-31 > 100 µM | PC-3 > 100 µM | SR > 100 µM

Cn1cnc(N2CCCC2)c(C#N)c1=O
inactive: HT-29 > 100 µM | COLO 205 > 100 µM | OVCAR-4 > 100 µM | K562 > 100 µM | HL-60 > 100 µM | EKVX > 100 µM | NCI/ADR-RES > 100 µM | SF-268 > 100 µM | CCRF-CEM > 100 µM | U-251 > 100 µM | UACC-62 > 100 µM | M14 > 100 µM | 786-0 > 100 µM | ACHN > 100 µM | OVCAR-8 > 100 µM | UO-31 > 100 µM | PC-3 > 100 µM | SR > 100 µM

COc1ccc(C2SCC(=O)N2NC(=O)C(C)Oc2ccccc2Cl)cc1 (centres undefined)
inactive: HT-29 65.8 µM | COLO 205 26.5 µM | OVCAR-4 60.7 µM | K562 47.4 µM | HL-60 17.1 µM | EKVX 83.2 µM | NCI/ADR-RES 63.2 µM | SF-268 > 100 µM | CCRF-CEM 31.8 µM | U-251 38 µM | UACC-62 46 µM | M14 41.9 µM | 786-0 98.6 µM | ACHN 38.5 µM | OVCAR-8 61.1 µM | UO-31 70.5 µM | PC-3 33.7 µM | SR 26.1 µM

Nc1c(Cl)cc(-c2nc3ccccc3s2)cc1Cl
inactive: HT-29 > 100 µM | COLO 205 > 100 µM | K562 > 100 µM | HL-60 > 100 µM | EKVX > 100 µM | NCI/ADR-RES > 100 µM | SF-268 > 100 µM | CCRF-CEM > 100 µM | SK-OV-3 > 100 µM | U-251 > 100 µM | UACC-62 > 100 µM | M14 > 100 µM | 786-0 22.6 µM | ACHN > 100 µM | OVCAR-8 > 100 µM | UO-31 > 100 µM | PC-3 > 100 µM | SR > 100 µM

O=P1(Oc2ccc(Cl)cc2)OCCS1 (centres undefined)
inactive: HT-29 > 100 µM | COLO 205 > 100 µM | HL-60 80.7 µM | EKVX > 100 µM | NCI/ADR-RES > 100 µM | SF-268 > 100 µM | CCRF-CEM > 100 µM | SK-OV-3 > 100 µM | U-251 > 100 µM | UACC-62 > 100 µM | M14 > 100 µM | 786-0 > 100 µM | ACHN > 100 µM | OVCAR-8 > 100 µM | UO-31 > 100 µM | PC-3 > 100 µM | SR > 100 µM

CC[C@H](C)C1=C(OC(C)=O)[N@+]2([O-])Oc3ccc(-c4c(O)c(O)c(-c5ccc(OC(C)=O)cc5)c(OC(C)=O)c4OC(C)=O)cc3O[C@]2([C@@H](C)CC)C(=O)N1O
inactive: HT-29 17.6 µM | COLO 205 19.8 µM | OVCAR-4 11.1 µM | K562 11.7 µM | HL-60 15.9 µM | EKVX 18.8 µM | NCI/ADR-RES 18.5 µM | SF-268 18.8 µM | SK-OV-3 17.3 µM | U-251 24.3 µM | UACC-62 14.7 µM | M14 28.2 µM | 786-0 14.1 µM | ACHN 14.9 µM | OVCAR-8 18.4 µM | UO-31 35 µM | PC-3 20.6 µM | SR 13.6 µM

Nc1ccn(C2OC(C(OC3OC(CO)C(O)C(N)C3O)C(O)C(O)C(O)C(O)CO)C(N)C(O)C2O)c(=O)n1 (centres undefined)
inactive: HT-29 > 100 µM | COLO 205 > 100 µM | OVCAR-4 3.54 µM | HL-60 > 100 µM | EKVX > 100 µM | NCI/ADR-RES 49.1 µM | SF-268 11 µM | CCRF-CEM > 100 µM | U-251 > 100 µM | UACC-62 71 µM | M14 44 µM | 786-0 35.5 µM | ACHN 21.7 µM | OVCAR-8 81.5 µM | UO-31 52 µM | PC-3 50.7 µM | SR 19.9 µM

Cc1ccsc1/C(S)=N\c1ccc(Cl)c(/C=N/OC(C)(C)C)c1
inactive: HT-29 14.1 µM | COLO 205 16.3 µM | OVCAR-4 > 100 µM | HL-60 24.2 µM | EKVX 24.6 µM | NCI/ADR-RES 23.6 µM | SF-268 > 100 µM | CCRF-CEM 24.2 µM | SK-OV-3 > 100 µM | U-251 24.3 µM | UACC-62 32.4 µM | M14 39 µM | 786-0 20.9 µM | ACHN 24.5 µM | OVCAR-8 33 µM | UO-31 20.6 µM | PC-3 34.4 µM | SR 19.9 µM
